Patent publication US20240018146A1, “COMPOSITIONS AND METHODS OF USING THE SAME FOR TREATMENT OF NEURODEGENERATIVE AND MITOCHONDRIAL DISEASE” (MITOKININ, INC., priority 2020, published 2024)
Read-outs that look alike come from different tables or passages of the source.

Experiments:
HeLa MKYP cells [1] = assay: Human mitophagy assay (HeLa mKeima assay, FACS); assay type: cell-based; conditions: read-out: Mitophagy induction EC50
Procedure, shortened: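 Mitophagy, read by FACS as the share of cells showing the lysosomal mtKeima emission shift, followed 6 h of 1 uM FCCP/oligomycin stimulation. Before that, HeLa MKYP cells spent 16 h with compound over a concentration range.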

HeLa MKYP cells [2] = assay: Cell death measured by DAPI staining, with 1 μM FCCP/oligomycin or no toxin (no FO); assay type: cell-based
Procedure, shortened: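 Cell death was read by DAPI staining after 6–6.5 h compound exposure in HeLa MKYP cells, either with 1 μM FCCP/oligomycin or without toxin. H2O2 served as the cell-death control.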

[3] = Mitotoxicity / Mitotox safety margin (therapeutic window); assay type: cell-based
pS129 α-syn = assay: Preformed fibril (PFF) model in primary neuron culture, pS129 α-syn; assay type: cell-based; conditions: increasing doses
Method: 4. Preformed Fibril Model
Mouse and human alpha-synuclein monomers have been sourced commercially, then pre-formed fibrils have been generated as per the detailed protocol provided by the MJFF. For in vitro experiments primary hippocampal neurons isolated from P0 pups were grown for 7 days after which PFFs at 5 ug/ml were introduced Pre-formed fibrils will be introduced via stereotactic injection into the striatum of wt (C57BL/6J, Jax #000664) and transgenic A53T mice (B6;C3-Tg(Prnp-SNCA*A53T)83Vle/J, Jax #004479). Cohorts of drug-treated (oral gavage) and untreated animals will then be allowed to age for up to 6 months, at which point they will be sacrificed and perfused. Brains will be removed and fixed, then sectioned for analysis. We anticipate that untreated A53T animals will show significant spreading of aggregated alpha-synuclein pathology and pS129 staining, as well as some possible neurodegeneration; wt animals are also expected to show pS129 synuclein staining and synuclein aggregation, albeit less than that seen in the A53T background.

[4] = Inspection of crystallization and round cells; assay type: physicochemical; design: key: 1=yes crystals; 0=no crystals
Method: 5. Inspection of Crystallization and Round Cells
Briefly, the Hela MKYP (Mito-Keima/YFP-Parkin) cells were seeded at 10K cells/well. EP/MTK compounds were added at seeding (cells were still in suspension). The cells were incubated with the EP/MTK compounds for 16 hours, then 1 μM FCCP/oligomycin was added for 6 hours. Prior to harvesting, cells were scored by eye under 20× magnification for the presence or absence of crystalline or aggregated compound, or round cells.

SMILES | EC50 (HeLa MKYP cells [1]; Homo sapiens, HeLa) [nM] | Highest safe dose (cytotoxicity; no FO; safe means DAPI+ <20%) (HeLa MKYP cells [2]) [µM] | Max % death with 1 μM FO (HeLa MKYP cells [2]) [%] | Mito-Safety Index (highest safe dose/EC50) [3] | Highest safe dose (μM) (mitotox or cytotox) [3] [µM] | pS129 α-syn (250-12) in primary neuron culture (pS129 α-syn) | pS129 α-syn (monomer) in primary neuron culture (pS129 α-syn) | pS129 α-syn in primary neuron culture (pS129 α-syn) | EC50 (HeLa MKYP cells [1]) [nM] | visual inspection of crystallization ([4]; 0.1 μM compound) | visual inspection of crystallization ([4]; 0.3 μM compound) | visual inspection of crystallization ([4]; 0.9 μM compound) | visual inspection of crystallization ([4]; 2.8 μM compound) | visual inspection of crystallization ([4]; 8.3 μM compound) | visual inspection of crystallization ([4]; 25.0 μM compound, HeLa MKYP culture, 20× magnification)
C[C@H]1CN([C@H]2CCc3ccccc3[C@@H]2Nc2ncnc3[nH]c(C(F)(F)F)cc23)CCO1 (single isomer, unassigned) [EP-0040503] | 130 | 25.0 | 7.4 | 69.05 | 9.1 | reduces | reduces | reduces | – | – | – | – | – | – | –
c1ccc2c(c1)OC[C@H](C1CCOCC1)[C@H]2Nc1ncnc2[nH]c(C3CC3)cc12 (single isomer, unassigned) [EP-0040587] | 90 | 25.0 | 21.5 | 230.81 | 21.5 | reduces | reduces | reduces | – | – | – | – | – | – | –
Fc1ccc2c(c1)OC[C@H](N1C[C@@H]3COC[C@H]3C1)[C@H]2Nc1ncnc2[nH]c(C3CC3)cc12 (single isomer, unassigned) [EP-0040874] | – | 25.0 | 14.4 | 94.72 | 13.9 | reduces | reduces | reduces | 150 | – | – | – | – | – | –
c1ccc2c(c1)OCC(N1CC3CCOC3C1)C2Nc1ncnc2[nH]c(C3CC3)cc12 (single isomer, unassigned) [EP-0041668] | – | 25.0 | 8.0 | – | – | reduces | reduces | reduces | 140 | – | – | – | – | – | –
c1ccc2c(c1)OCC(N1CC3CCOC3C1)C2Nc1ncnc2[nH]c(C3CC3)cc12 (single isomer, unassigned) [EP-0041670] | – | 25.0 | 5.4 | – | – | reduces | reduces | reduces | 460 | – | – | – | – | – | –
COC1CN([C@@H]2COc3ccccc3[C@H]2Nc2ncnc3[nH]c(C(F)(F)F)cc23)C1 [EP-0040850] | 240 | 25.0 | 10.3 | 88.53 | 21.4 | reduces | reduces | reduces | – | – | – | – | – | – | –
COC1CN([C@H]2CCc3ccccc3[C@@H]2Nc2ncnc3[nH]c(C(F)(F)F)cc23)C1 [EP-0040857] | – | 25.0 | 17.0 | 116.38 | 18.7 | reduces | reduces | reduces | 160 | – | – | – | – | – | –
C[C@@H]1CN([C@@H]2COc3cc(F)ccc3[C@H]2Nc2ncnc3[nH]c(C(F)(F)F)cc23)CCO1 [EP-0041088] | 120 | 25.0 | 16.2 | 128.93 | 15.7 | reduces | reduces | reduces | – | – | – | – | – | – | –
C[C@@H]1CN([C@H]2COc3cc(F)ccc3[C@@H]2Nc2ncnc3[nH]c(C4CC4)cc23)CCO1 [EP-0041122] | 50 | 16.7 | 16.9 | 37.43 | 2.0 | – | – | – | – | – | – | – | – | – | –
C[C@H]1CN([C@@H]2COc3cc(F)ccc3[C@H]2Nc2ncnc3[nH]c(C4CC4)cc23)CCO1 [EP-0041125] | 160 | 25.0 | 9.6 | 45.69 | 7.4 | – | – | – | – | – | – | – | – | – | –
CO[C@@H]1CCN([C@H]2COc3ccccc3[C@@H]2Nc2ncnc3[nH]c(C(F)(F)F)cc23)C1 [EP-0041161] | 50 | 25.0 | 8.5 | 75.49 | 3.4 | reduces | reduces | reduces | – | – | – | – | – | – | –
CO[C@H]1CCN([C@H]2COc3ccccc3[C@@H]2Nc2ncnc3[nH]c(C(F)(F)F)cc23)C1 [EP-0041172] | 10 | 25.0 | 8.4 | 121.36 | 1.1 | – | – | – | – | – | – | – | – | – | –
CO[C@@H]1CCN([C@H]2COc3ccccc3[C@@H]2Nc2ncnc3[nH]c(C4CC4)cc23)C1 [EP-0041451] | 10 | 25.0 | 6.5 | 87.93 | 0.7 | – | – | – | – | – | – | – | – | – | –
CO[C@H]1CCN([C@H]2COc3ccccc3[C@@H]2Nc2ncnc3[nH]c(C4CC4)cc23)C1 [EP-0041517] | 30 | 25.0 | 4.8 | 34.73 | 1.1 | – | – | – | – | – | – | – | – | – | –
COC[C@H]1CCN([C@H]2COc3ccccc3[C@@H]2Nc2ncnc3[nH]c(C4CC4)cc23)C1 [EP-0041546] | – | 25.0 | 6.6 | 21.52 | 3.6 | – | – | – | 170 | – | – | – | – | – | –
c1coc(CNc2ncnc3[nH]cnc23)c1 [Kinetin, kinetin, reference compound] | – | – | – | – | – | – | – | – | – | 0 | 0 | 0 | 0 | 0 | 0
